Where two headings read alike, the source gives them in different places.
Assays:
[1] = target: T1, TYK2 JH2 (Homo sapiens, UniProt P29597); experiment: TYK2 JH2 binding assay (KINOMEscan KdELECT competitive binding); conditions: TYK2 JH2 domain, KINOMEscan KdELECT (Assay A); read-out: Biochemical TYK2_DiscoverX_JH2_BND_Kd
T1 construct: purchased DiscoverX (KINOMEscan KdELECT service); host or cells: E. coli BL21-derived (T7 phage display) or HEK-293
Procedure, shortened: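 Beads carrying a biotinylated ligand were mixed with tagged JH2 kinase and compound (11 points, 3-fold steps, 0.9% DMSO) and shaken 1 h at room temperature. After washing, kinase was released with 0.5 μM untagged ligand over 30 min and measured by qPCR to derive Kd.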

[2] = system: JAK1/TYK2 pSTAT5 (Tyr694/699) in THP-1 cell line; experiment: IFNa-stimulated JAK1/TYK2 pSTAT5 (Tyr694/699) inhibition cellular assay, AlphaLISA; format: cell-based; conditions: Homo sapiens, THP-1 cells, AlphaLISA (Assay B), read-out: Cellular_THP1_IFNa-pSTATS_TYK2
Procedure, shortened: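 Compound dilutions were dispensed first, and HBSS-suspended THP-1 cells were added on top (final top concentration 10000 nM, 6-fold series). After 1 h at 37 °C, IFNa (100 ng/mL as added) was applied for 30 min. Cells were then lysed and pSTAT5 was quantified by AlphaLISA.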

[3] = IFNa-stimulated pSTAT5 (Tyr694/699)

T1 sequence (P29597 589-875 limits assumed): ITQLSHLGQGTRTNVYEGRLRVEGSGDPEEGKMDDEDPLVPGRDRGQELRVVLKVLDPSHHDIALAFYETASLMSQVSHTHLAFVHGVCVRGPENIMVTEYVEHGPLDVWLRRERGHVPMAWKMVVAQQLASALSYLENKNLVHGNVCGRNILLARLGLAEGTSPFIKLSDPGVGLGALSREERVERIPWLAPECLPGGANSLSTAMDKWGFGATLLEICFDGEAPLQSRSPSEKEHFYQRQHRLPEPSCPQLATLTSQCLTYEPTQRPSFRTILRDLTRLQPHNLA

| Structure (SMILES) | Kd [1] | IC50 ([2]; IFNa-stimulated) | IC50 [2, 3] |
| --- | --- | --- | --- |
| CNc1ncc(C#Cc2ccc3c(c2)C(F)(F)C(=O)N3C)c2cc(NC(=O)C3CC3)ncc12 [Example 972, N-[5-[2-(3,3-difluoro-1-methyl-2-oxo-indolin-5-yl)ethynyl]-8-(methylamino)-2,7-naphthyridin-3-yl]cyclopropanecarboxamide] | ≤ 100 nM | ≤ 500 nM | – |
| CNc1ncc(C#Cc2cc3c(cc2F)OCCO3)c2cc(NC(=O)C3CC3)ncc12 [Example 973, N-[5-[2-(6-fluoro-2,3-dihydro-1,4-benzodioxin-7-yl)ethynyl]-8-(methylamino)-2,7-naphthyridin-3-yl]cyclopropanecarboxamide] | ≤ 100 nM | ≤ 500 nM | – |
| CNc1ncc(C#Cc2ccc3c(c2)CCC(CF)O3)c2cc(NC(=O)C3CC3)ncc12 (stereo not drawn) [Example 974, N-[5-[2-[2-(fluoromethyl)chroman-6-yl]ethynyl]-8-(methylamino)-2,7-naphthyridin-3-yl]cyclopropanecarboxamide] | ≤ 100 nM | ≤ 500 nM | – |
| CNc1ncc(C#Cc2cccc3c2SCCC3=O)c2cc(NC(=O)C3CC3)ncc12 [Example 975, N-[8-(methylamino)-5-[2-(4-oxothiochroman-8-yl)ethynyl]-2,7-naphthyridin-3-yl]cyclopropanecarboxamide] | ≤ 100 nM | ≤ 500 nM | – |
| CNc1ncc(C#Cc2ncc(OC)cc2C(F)F)c2cc(NC(=O)C3CC3)ncc12 [Example 976, N-(5-((3-(difluoromethyl)-5-methoxypyridin-2-yl)ethynyl)-8-(methylamino)-2,7-naphthyridin-3-yl)cyclopropanecarboxamide] | ≤ 100 nM | ≤ 500 nM | – |
| CNc1ncc(C#Cc2ccc3c(c2)OCC(C)O3)c2cc(NC(=O)C3CC3)ncc12 (stereo not drawn) [Example 977, N-[8-(methylamino)-5-[2-(2-methyl-2,3-dihydro-1,4-benzodioxin-6-yl)ethynyl]-2,7-naphthyridin-3-yl]cyclopropanecarboxamide] | ≤ 100 nM | ≤ 500 nM | – |
| CNc1ncc(C#Cc2ccc3c(c2)C=CC(C)(C)O3)c2cc(NC(=O)C3CC3)ncc12 [Example 978, N-[5-[2-(2,2-dimethylchromen-6-yl)ethynyl]-8-(methylamino)-2,7-naphthyridin-3-yl]cyclopropanecarboxamide] | ≤ 100 nM | ≤ 500 nM | – |
| CNc1ncc(C#Cc2ccnc(F)c2)c2cc(NC(=O)C3CC3)ncc12 [Example 979, N-[5-[2-(2-fluoro-4-pyridyl)ethynyl]-8-(methylamino)-2,7-naphthyridin-3-yl]cyclopropanecarboxamide] | ≤ 100 nM | ≤ 500 nM | – |
| CNc1ncc(C#Cc2ccc(F)cn2)c2cc(NC(=O)C3CC3)ncc12 [Example 980, N-[5-[2-(5-fluoro-2-pyridyl)ethynyl]-8-(methylamino)-2,7-naphthyridin-3-yl]cyclopropanecarboxamide] | ≤ 100 nM | ≤ 500 nM | – |
| CNc1ncc(C#Cc2ccc3c(c2)CCC(CO)O3)c2cc(NC(=O)C3CC3)ncc12 (stereo not drawn) [Example 981] | ≤ 100 nM | ≤ 500 nM | – |
| CNc1ncc(C#Cc2nccc3ccsc23)c2cc(NC(=O)C3CC3)ncc12 [Example 984, N-[8-(methylamino)-5-(2-thieno[2,3-c]pyridin-7-ylethynyl)-2,7-naphthyridin-3-yl]cyclopropanecarboxamide] | ≤ 100 nM | ≤ 500 nM | – |
| CNc1ncc(C#Cc2ccncc2Cl)c2cc(NC(=O)C3CC3)ncc12 [Example 985, N-[5-[2-(3-chloro-4-pyridyl)ethynyl]-8-(methylamino)-2,7-naphthyridin-3-yl]cyclopropanecarboxamide] | ≤ 100 nM | ≤ 500 nM | – |
| CNc1ncc(C#Cc2ccc(Oc3cn(C)cn3)cc2)c2cc(NC(=O)C3CC3)ncc12 [Example 986, N-[8-(methylamino)-5-[2-[4-(1-methylimidazol-4-yl)oxyphenyl]ethynyl]-2,7-naphthyridin-3-yl]cyclopropanecarobxmaide] | ≤ 100 nM | ≤ 500 nM | – |
| CNc1ncc(C#Cc2ccc3c(c2)CCC(COC)O3)c2cc(NC(=O)C3CC3)ncc12 (stereo not drawn) [Example 987, N-[5-[2-[2-(methoxymethyl)chroman-6-yl]ethynyl]-8-(methylamino)-2,7-naphthyridin-3-yl]cyclopropanecarobxamide] | ≤ 100 nM | ≤ 500 nM | – |
| CNc1ncc(C#Cc2cn(C)cn2)c2cc(NC(=O)C3CC3)ncc12 [Example 990, N-[8-(methylamino)-5-[2-(1-methylimidazol-4-yl)ethynyl]-2,7-naphthyridin-3-yl]cyclopropanecarboxamide] | ≤ 100 nM | ≤ 500 nM | – |
| CNc1ncc(C#Cc2ccncc2F)c2cc(NC(=O)C3CC3)ncc12 [Example 991, N-[5-[2-(3-fluoro-4-pyridyl)ethynyl]-8-(methylamino)-2,7-naphthyridin-3-yl]cyclopropanecarboxamide] | ≤ 100 nM | ≤ 500 nM | – |
| CNc1ncc(C#Cc2ccnc(Cl)c2)c2cc(NC(=O)C3CC3)ncc12 [Example 992, N-[5-[2-(2-chloro-4-pyridyl)ethynyl]-8-(methylamino)-2,7-naphthyridin-3-yl]cyclopropanecarboxamide] | ≤ 100 nM | ≤ 500 nM | – |
| CNc1ncc(C#Cc2ccc(OCC(F)(F)F)cn2)c2cc(NC(=O)C3CC3)ncc12 [Example 993, N-[8-(methylamino)-5-[2-[5-(2,2,2-trifluoroethoxy)-2-pyridyl]ethynyl]-2,7-naphthyridin-3-yl]cyclopropanecarboxamide] | ≤ 100 nM | ≤ 500 nM | – |
| CNc1ncc(C#Cc2ccc(Cl)cn2)c2cc(NC(=O)C3CC3)ncc12 [Example 995, N-(5-((5-chloropyridin-2-yl)ethynyl)-8-(methylamino)-2,7-naphthyridin-3-yl)cyclopropanecarboxamide] | ≤ 100 nM | – | ≤ 500 nM |
| CNc1ncc(C#Cc2ccc3nc(C(F)F)sc3c2)c2cc(NC(=O)C3CC3)ncc12 [Example 996, N-(5-((2-(difluoromethyl)benzo[d]thiazol-6-yl)ethynyl)-8-(methylamino)-2,7-naphthyridin-3-yl)cyclopropanecarboxamide] | ≤ 100 nM | – | ≤ 500 nM |
| CNc1ncc(C#Cc2ccc3c(c2)OCO3)c2cc(NC(=O)C3CC3)ncc12 [Example 997, N-[5-[2-(1,3-benzodioxol-5-yl)ethynyl]-8-(methylamino)-2,7-naphthyridin-3-yl]cyclopropanecarboxamide] | ≤ 100 nM | – | ≤ 500 nM |
| CNc1ncc(C#Cc2ccc(-n3ncccc3=O)cc2)c2cc(NC(=O)C3CC3)ncc12 [Example 998, N-(8-(methylamino)-5-((4-(6-oxopyridazin-1(6H)-yl)phenyl)ethynyl)-2,7-naphthyridin-3-yl)cyclopropanecarboxamide] | ≤ 100 nM | – | ≤ 500 nM |
| CNc1ncc(C#Cc2ccc(N3CCOCC3=O)cc2)c2cc(NC(=O)C3CC3)ncc12 [Example 999, N-(8-(methylamino)-5-((4-(3-oxomorpholino)phenyl)ethynyl)-2,7-naphthyridin-3-yl)cyclopropanecarboxamide] | ≤ 100 nM | – | ≤ 500 nM |
| CNc1ncc(C#Cc2ccc(N3CCN(C)C3=O)cc2)c2cc(NC(=O)C3CC3)ncc12 [Example 1000, N-(5-((4-(3-methyl-2-oxoimidazolidin-1-yl)phenyl)ethynyl)-8-(methylamino)-2,7-naphthyridin-3-yl)cyclopropanecarboxamide] | ≤ 100 nM | – | ≤ 500 nM |
| CNc1ncc(C#Cc2ccc(-n3c(=O)ccn3C)cn2)c2cc(NC(=O)C3CC3)ncc12 [Example 1001, N-(5-((5-(2-methyl-5-oxo-2,5-dihydro-1H-pyrazol-1-yl)pyridine-2-yl)ethynyl)-8-(methylamino)-2,7-nahphthyridin-3-yl)cyclopropanecarboxamide] | ≤ 100 nM | – | ≤ 500 nM |
| CN=S(C)(=O)c1ccc(C#Cc2cnc(NC)c3cnc(NC(=O)C4CC4)cc23)cc1 (stereo not drawn) [Example 1002, N-(5-((4-(N,S-dimethylsulfonimidoyl)phenyl)ethynyl)-8-(methylamino)-2,7-naphthyridin-3-yl)cyclopropanecarobxamide] | ≤ 100 nM | – | ≤ 500 nM |
| CNc1ncc(C#Cc2cn(C)c(C)n2)c2cc(NC(=O)C3CC3)ncc12 [Example 1003, N-(5-((1,2-dimethyl-1H-imidazol-4-yl)ethynyl)-8-(methylamino)-2,7-naphthyridin-3-yl)cyclopropanecarboxamide] | ≤ 100 nM | – | ≤ 500 nM |
| CNc1ncc(C#Cc2cnc(C)n2C)c2cc(NC(=O)C3CC3)ncc12 [Example 1004, N-(5-((1,2-dimethyl-1H-imidazol-5-yl)ethynyl)-8-(methylamino)-2,7-naphthyridin-3-yl)cyclopropanecarboxamide] | ≤ 100 nM | – | ≤ 500 nM |
| CNc1ncc(C#Cc2ccc3c(c2)OC(C)CO3)c2cc(NC(=O)C3CC3)ncc12 (stereo not drawn) [Example 1005, N-(5-((3-methyl-2,3-dihydrobenzo[b][1,4]dioxin-6-yl)ethynyl)-8-(methylamino)-2,7-naphthyridin-3-yl)cyclopropanecarboxamide] | ≤ 100 nM | – | ≤ 500 nM |
| CNc1ncc(C#Cc2cn(C(F)F)c(C)n2)c2cc(NC(=O)C3CC3)ncc12 [Example 1006, N-(5-((1-(difluoromethyl)-2-methyl-1H-imidazol-4-yl)ethynyl)-8-(methylamino)-2,7-naphthyridin-3-yl)cyclopropanecarboxamide] | ≤ 100 nM | – | ≤ 500 nM |

Reference: US20240025906A1 (NEURON23, INC., priority 2022, published 2024)
